Measured values as given in patent US7183415B2, “Quinoline compound” (Takeda Pharmaceutical Company Limited, priority 2001, dated 2007).

SMILES | melting point
Cc1c(NC(=O)c2ccc(-c3ccccc3)cc2)ccc2cc(CN3CCCC3)cnc12 [Example 17, N-[8-methyl-3-(1-pyrrolidinylmethyl)-7-quinolinyl][1,1′-biphenyl]-4-carboxamide] | 184 to 186 °C
COc1ccc(-c2ccc(C(=O)Nc3ccc4cc(CN5CCCC5)cnc4c3C)cc2)cc1 [Example 18, 4′-methoxy-N-[8-methyl-3-(1-pyrrolidinylmethyl)-7-quinolinyl][1,1′-biphenyl]-4-carboxamide] | 210 to 213 °C
Cc1c(NC(=O)c2ccc(-c3ccc(Cl)cc3)cc2)ccc2cc(CN3CCCC3)cnc12 [Example 21, 4′-chloro-N-[8-methyl-3-(1-pyrrolidinylmethyl)-7-quinolinyl][1,1′-biphenyl]-4-carboxamide] | 227 to 229 °C
CCN(CC)Cc1cnc2cc(NC(=O)c3ccc(-c4ccc(Cl)cc4)cc3)c(OC)cc2c1 [Example 22, 4′-chloro-N-{3-[(diethylamino)methyl]-6-methoxy-7-quinolinyl}[1,1′-biphenyl]-4-carboxamide] | 271 °C (dec.)
COc1cc2cc(CN3CCCC3)cnc2cc1NC(=O)c1ccc(-c2ccc(Cl)cc2)cc1 [Example 23, 4′-chloro-N-[6-methoxy-3-(1-pyrrolidinylmethyl)-7-quinolinyl][1,1′-biphenyl]-4-carboxamide] | 271 °C (dec.)
COc1cc2cc(CN3CCCCC3)cnc2cc1NC(=O)c1ccc(-c2ccc(Cl)cc2)cc1 [Example 24, 4′-chloro-N-[6-methoxy-3-(1-piperidinylmethyl)-7-quinolinyl][1,1′-biphenyl]-4-carboxamide] | 236 °C (dec.)
O=C(Nc1cc2ncc(CN3CCCC3)cc2cc1Cl)c1ccc(-c2ccc(Cl)cc2)cc1 [Example 25, 4′-chloro-N-[6-chloro-3-(1-pyrrolidinylmethyl)-7-quinolinyl][1,1′-biphenyl]-4-carboxamide] | 188 °C (dec.)
Cc1ccc(-c2ccc(C(=O)Nc3ccc4cc(CN5CCC(C(N)=O)CC5)cnc4c3C)cc2)cc1 [Example 26, 1-[(8-methyl-7-{[(4′-methyl-1,1′-biphenyl-4-yl)carbonyl]amino}-3-quinolinyl)methyl]-4-piperidine carboxamide] | 287 °C (dec.)
NC(=O)C1CCN(Cc2cnc3cc(NC(=O)c4ccc(-c5ccc(F)cc5)cc4)ccc3c2)CC1 [Example 42, 1-[(7-{[(4′-fluoro[1,1′-biphenyl]-4-yl)carbonyl]amino}-3-quinolinyl)methyl]-4-piperidine carboxamide] | 261 to 265 °C
CC(=O)NC1CCN(Cc2cnc3cc(NC(=O)c4ccc(-c5ccc(F)cc5)cc4)ccc3c2)C1 (centres unmarked) [Example 43, N-(3-{[3-(acetylamino)-1-pyrrolidinyl]methyl}-7-quinolinyl)-4′-fluoro[1,1′-biphenyl]-4-carboxamide] | 250 to 253 °C
CCNC(=O)CC1CCN(Cc2cnc3cc(NC(=O)c4ccc(-c5ccc(F)cc5)cc4)ccc3c2)CC1 [Example 44, N-[3-({4-[2-(ethylamino)-2-oxoethyl]-1-piperidinyl}methyl)-7-quinolinyl]-4′-fluoro[1,1′-biphenyl]-4-carboxamide] | 224 to 227 °C
O=C(Nc1ccc2cc(CN3CCC(CO)CC3)cnc2c1)c1ccc(-c2ccc(F)cc2)cc1 [Example 45, 4′-fluoro-N-(3-{[4-(hydroxymethyl)-1-piperidinyl]methyl}-7-quinolinyl)[1,1′-biphenyl]-4-carboxamide] | 191 to 195 °C
O=C(Nc1ccc2cc(CN3CCC(CCO)CC3)cnc2c1)c1ccc(-c2ccc(F)cc2)cc1 [Example 46, 4′-fluoro-N-(3-{[4-(2-hydroxyethyl)-1-piperidinyl]methyl}-7-quinolinyl)[1,1′-biphenyl]-4-carboxamide] | 193 to 196 °C

Continued, values first:

melting point | SMILES
244 to 246 °C | Cc1ccc(C2CCN(C(=O)Nc3ccc4cc(CN5CCCC5)cnc4c3)CC2)cc1 [Example 15, 4-(4-methylphenyl)-N-[3-(1-pyrrolidinylmethyl)-7-quinolinyl]-1-piperidine carboxamide]
249 to 251 °C | O=C(Nc1ccc2cc(CN3CCCC3)cnc2c1)N1CCC(c2ccc(Cl)cc2)CC1 [Example 16, 4-(4-chlorophenyl)-N-[3-(1-pyrrolidinylmethyl)-7-quinolinyl]-1-piperidine carboxamide]
177 to 179 °C | Cc1ccc(-c2ccc(C(=O)Nc3ccc4cc(CN5CCCC5)cnc4c3C)cc2)cc1 [Example 20, 4′-methyl-N-[8-methyl-3-(1-pyrrolidinylmethyl)-7-quinolinyl][1,1′-biphenyl]-4-carboxamide]
204 °C | O=C(Nc1ccc2cc(CN3CCCCCC3)cnc2c1)c1ccc(-c2ccc(Cl)cc2)cc1 [Example 27, N-[3-(1-azepanylmethyl)-7-quinolinyl]-4′-chloro[1,1′-biphenyl]-4-carboxamide]
209 °C | Cc1ccc(-c2ccc(C(=O)Nc3ccc4cc(CN5CCCCCC5)cnc4c3)cc2)cc1 [Example 28, N-[3-(1-azepanylmethyl)-7-quinolinyl]-4′-methyl[1,1′-biphenyl]-4-carboxamide]
202 °C | O=C(Nc1ccc2cc(CN3CCCCCC3)cnc2c1)c1ccc(-c2ccc(F)cc2)cc1 [Example 29, N-[3-(1-azepanylmethyl)-7-quinolinyl]-4′-fluoro[1,1′-biphenyl]-4-carboxamide]
212 °C (dec.) | COc1ccc(-c2ccc(C(=O)Nc3ccc4cc(CN5CCCCCC5)cnc4c3)cc2)cc1 [Example 30, N-[3-(1-azepanylmethyl)-7-quinolinyl]-4′-methoxy[1,1′-biphenyl]-4-carboxamide]
205 °C (dec.) | O=C(Nc1ccc2cc(CN3CCCCCC3)cnc2c1)c1ccc(-c2ccccc2)cc1 [Example 31, N-[3-(1-azepanylmethyl)-7-quinolinyl][1,1′-biphenyl]-4-carboxamide]
233 °C (dec.) | O=C(Nc1ccc2cc(CN3CCCCCC3)cnc2c1)c1ccc(-c2ccc(Cl)cc2)nc1 [Example 32, N-[3-(1-azepanylmethyl)-7-quinolinyl]-6-(4-chlorophenyl)nicotinamide]
237 °C (dec.) | Cc1ccc(-c2ccc(C(=O)Nc3ccc4cc(CN5CCCCCC5)cnc4c3)cn2)cc1 [Example 33, N-[3-(1-azepanylmethyl)-7-quinolinyl]-6-(4-methylphenyl)nicotinamide]
247 °C (dec.) | O=C(Nc1ccc2cc(CN3CCCCCC3)cnc2c1)N1CCC(c2ccc(Cl)cc2)CC1 [Example 34, N-[3-(1-azepanylmethyl)-7-quinolinyl]-4-(4-chlorophenyl)-1-piperidine carboxamide]
240 °C (dec.) | Cc1ccc(C2CCN(C(=O)Nc3ccc4cc(CN5CCCCCC5)cnc4c3)CC2)cc1 [Example 35, N-[3-(1-azepanylmethyl)-7-quinolinyl]-4-(4-methylphenyl)-1-piperidine carboxamide]
214 to 217 °C | Cc1cc2cc(CN3CCCC3)cnc2cc1NC(=O)c1ccc(-c2ccc(Cl)cc2)cc1 [Example 39, 4′-chloro-N-[6-methyl-3-(1-pyrrolidinylmethyl)-7-quinolinyl][1,1′-biphenyl]-4-carboxamide]
